Literature values in patent publication US5604233A, “Lactone stable formulation of 7-ethyl camptothecin and methods for uses thereof” (priority 1994, dated 1997).

What was measured:
topoisomerase I = settings: cited from earlier work
[1] = cited from earlier work
L1210 cells = settings: cited from earlier work
[2] = pH levels below 7.0; cited from earlier work
L1210 leukemia = settings: 10-100 mg/kg intraperitoneally; cited from earlier work
topoisomerase II = settings: cited from earlier work
[3] = test system: Topoisomerase I purified from human colon carcinoma cells or calf thymus; settings: cited from earlier work
[4] = Phase I, early 1970's; cited from earlier work

Compound: CC[C@@]1(O)C(=O)OCc2c1cc1n(c2=O)Cc2cc3ccccc3nc2-1 [camptothecin]
- reversibility of cleavable complex stabilization (topoisomerase I): readily reversible
- solubility in water [1]: poorly soluble in water
- protein-free breaks (L1210 cells): increase in unexplained protein-free breaks
- form predominating [2]: closed form
- T/C (treated/control) ratios relative to ECPT and HECPT (L1210 leukemia): superior
- results relative to CPT-11 under the same conditions (L1210 leukemia): inferior
- effect on topoisomerase II (topoisomerase II): no effect
- inhibition of purified topoisomerase I [3]: inhibited
- antitumor activity in Phase I trials [4]: antitumor activity
- toxicity in Phase I trials [4]: unpredictable myelosuppression and hemorrhagic cystitis
